Test results published in patent US12465630B2, “Small peptide compositions and uses thereof” (University of Pittsburgh—Of the Commonwealth System of …, priority 2018, dated 2025).

Assays:
[1] = system: co-cultures of cardiomyocytes and cardiac fibroblasts; assay: Fibrotic extracellular matrix (ECM) secretion, co-cultures; format: cell-based, mouse; settings: 48 h
Description: (§1) Primary cardiac fibroblasts and cardiomyocytes were isolated from both wild-type and CXCR3−/− neonatal mouse pups. After washing in PBS, hearts were stirred for 5 minutes in 0.5% trypsin at 37° C. to dissociate cells into solution. The suspended cells were then transferred to DMEM containing 20% fetal bovine serum (FBS) on ice to inactivate trypsin activity, and dissociation was repeated twice more with fresh trypsin solution. Cells were then washed and plated into 6-well plates at 1.25×10^6 cells/well, suspended in cardiac cell media (DMEM containing 7.5% dialyzed FBS and 1% antibiotic/antimitotic solution). After three hours, adhered fibroblasts were separated from the unattached cardiomyocytes through resuspension of the cells, and cardiomyocytes were plated separately at a density of 5×10^5 cells/ml.
Cardiac fibrosis is marked by overproduction of ECM proteins following injury. To observe the effect of IP-10p on secretion of these molecules, co-cultures of cardiomyocytes and cardiac fibroblasts were used to account for […] signaling taking place between the two dominant cell types in the heart. Fibroblasts and myocytes were plated at a 2:1 ratio using the same culture conditions and treatment groups described above for fibroblast activation. Following a 48-hour incubation with their respective treatments, cells were fixed, permeabilized and stained. Antibodies for collagen α1 type 1 (1:250, Santa Cruz Biotechnology SC8784, Dallas, TX), fibronectin (1:250, Abcam ab2413), and tenascin C (1:200, Abcam ab6346), followed by their appropriate secondary antibodies (Abcam ab150132, ab150077, and 150153, respectively), were used to determine fibrotic ECM secretion from the co-cultures. Expression of these molecules is expressed at CTCF and was quantified using MetaMorph® (Molecular Devices, Sunnyvale, CA).

cardiac fibroblasts [2] = assay: Motility (scratch) assay, cardiac fibroblasts; format: cell-based, mouse
Description: as §1
(§2) To determine the effect of IP-10p on TGFβ1-induced cell migration, motility assays were performed on cardiac fibroblasts, cardiomyocytes, and co-cultures (2:1 ratio of cardiomyocytes to fibroblasts). Cells were plated at 2.5×10^5 cells/well in a 12-well uncoated plate in depleted media (DMEM containing 0.5% FBS) 24 hours before beginning the experiment. A pipette tip was used to create a scratch in the monolayer and the plate was washed twice with PBS to remove scraped cells. Cells were then treated with TGFβ1 (R&D Systems, Minneapolis, MN) alone (10 ng/mL) to stimulate fibrosis, CXCL10 alone (10 μM), IP-10p alone (10 μM), TGFβ1+CXCL10, TGFβ1+IP-10p, or left untreated. Images were taken immediately after scratching and 24 hours later, and Adobe Photoshop was used to quantify wound motility as distance between wound edges relative to the initial scratch width.

[3] = system: co-cultures of cardiomyocytes and cardiac fibroblasts; assay: Motility (scratch) assay, co-cultures; format: cell-based, mouse; settings: co-culture 2:1 cardiomyocytes to fibroblasts; FIG. 1C; listed as IP-10 Peptide
Description: as §1
To determine the effect of IP-10p on TGFβ1-induced cell migration, motility assays were performed on cardiac fibroblasts, cardiomyocytes, and co-cultures (2:1 ratio of cardiomyocytes to fibroblasts). Cells were plated at 2.5×10^5 cells/well in a 12-well uncoated plate in depleted media (DMEM containing 0.5% FBS) 24 hours before beginning the experiment. […] Images were taken immediately after scratching and 24 hours later, and Adobe Photoshop was used to quantify wound motility as distance between wound edges relative to the initial scratch width.

CXCR3 = molecular target: T1, CXCR3 (Homo sapiens, UniProt P49682); settings: cited from earlier work
T1 sequence (P49682 1-415 isoform P49682-2): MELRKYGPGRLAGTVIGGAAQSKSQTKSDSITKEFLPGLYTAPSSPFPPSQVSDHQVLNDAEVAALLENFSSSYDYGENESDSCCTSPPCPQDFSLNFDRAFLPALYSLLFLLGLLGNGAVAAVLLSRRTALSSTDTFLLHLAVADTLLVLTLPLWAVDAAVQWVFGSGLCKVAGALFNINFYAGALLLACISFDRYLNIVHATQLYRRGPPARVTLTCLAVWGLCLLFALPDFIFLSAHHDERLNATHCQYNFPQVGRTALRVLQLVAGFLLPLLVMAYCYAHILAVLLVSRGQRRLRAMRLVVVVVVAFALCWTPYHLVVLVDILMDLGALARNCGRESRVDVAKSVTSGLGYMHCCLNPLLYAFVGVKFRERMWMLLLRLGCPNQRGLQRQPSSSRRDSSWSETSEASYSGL

cardiac fibroblasts [4] = assay: Fibroblast activation assay (αSMA), cardiac fibroblasts; format: cell-based, mouse
Description: as §1
(§3) Fibroblast activation to myofibroblasts is marked by αSMA expression within the cytoskeleton and serves as a marker to induce fibrosis. Cardiac fibroblasts were plated at 2,000 cells/well in an 8-well chamber slide and allowed to adhere overnight. After 24 hours, cells were washed and treated with: TGFβ1 alone (10 ng/ml), CXCL10 alone (10 μM), IP-10p alone (10 μM), TGFβ1+CXCL10, TGFβ1+IP-10p, or left untreated. After 24 hours, cells were fixed in ice cold methanol for 10 minutes and stained for αSMA (1:200, Abcam ab5694, Cambridge, UK) at 4° C. overnight, followed by a goat-anti-rabbit Alexa Fluor 594-conjugated secondary antibody (Abcam ab150080). After counterstaining with DAPI, cells were imaged, and fibroblast activation was measured using corrected total cell fluorescence (CTCF). These measurements were also performed in co-cultures of cardiomyocytes and cardiac fibroblasts (2:1 ratio)

[5] = system: CXCR3−/− co-cultures of cardiac fibroblasts and cardiomyocytes; assay: Myofibroblast differentiation and ECM in CXCR3−/− co-cultures; format: cell-based, mouse; settings: CXCR3−/− cells, TGFβ1
Description: as §1, §3
Cardiac fibrosis is marked by overproduction of ECM proteins following injury. […] Expression of these molecules is expressed at CTCF and was quantified using MetaMorph® (Molecular Devices, Sunnyvale, CA).
In addition to cell motility, myofibroblast differentiation in CXCR3−/− cells in response to IP-10p was assessed. […]

cardiomyocytes = assay: Motility (scratch) assay, cardiomyocytes; format: cell-based, mouse; settings: TGFβ1 10 ng/mL + agent 10 μM, 24 h, FIG. 1A
Description: as §1, §2

[6] = agent alone vs unstimulated cultures

PESKAIKNLLKAVSKEMSKRSP [IP-10p, 22-amino acid CXCL10 peptide spanning the C-terminal residues (77-98) of IP-10, the alpha-helical region]
collagen expression in the presence of TGFβ1 ([1]; TGFβ1 10 ng/mL + agent 10 μM): reduced expression of both these proteins to baseline levels | fibronectin expression in the presence of TGFβ1 ([1]; TGFβ1 10 ng/mL + agent 10 μM): reduced expression of both these proteins to baseline levels | collagen secretion, agent alone [1, 6]: reduced collagen and fibronectin secretion | fibronectin secretion, agent alone [1, 6]: reduced collagen and fibronectin secretion | motility of cardiac fibroblasts, agent alone (cardiac fibroblasts [2]; 10 μM alone, 24 h, compared to control): not altered | migration following TGF-β induction in cardiac fibroblasts (cardiac fibroblasts [2]; FIG. 1B): inhibit migration | reduction of motility of TGFβ1-treated fibroblasts (cardiac fibroblasts [2]; TGFβ1 10 ng/mL + agent 10 μM, 24 h): over 40% | cellular migration in TGF-β induced co-cultures [3]: inhibits cellular migration | activation of the CXCR3B isoform (CXCR3; PCT Publication Nos. WO 2013/032853 and WO 2015/112505): activates the CXCR3B isoform | competition for binding and activation of CXCR3 (CXCR3; compared with whole CXCL10): competes for binding and activation of CXCR3 in an equimolar manner to whole CXCL10 | reduction of activation of fibroblasts (αSMA) compared to the untreated control (cardiac fibroblasts [4]; IP-10p alone 10 μM, 24 h): 33% | αSMA expression in the presence of TGFβ1 (cardiac fibroblasts [4]; TGFβ1 10 ng/mL + IP-10p 10 μM vs TGFβ1 alone): reduced αSMA expression | expression of αSMA in CXCR3−/− co-cultures [5]: inhibiting expression | upregulation of collagen I in CXCR3−/− co-cultures [5]: inhibited upregulation | upregulation of fibronectin in CXCR3−/− co-cultures [5]: inhibited upregulation | cardiomyocyte motility in the presence of TGFβ1 (cardiomyocytes): completely inhibited | cardiomyocyte motility in the presence of TGFβ1 (cardiomyocytes; listed as IP-10 Peptide): inhibit migration
